From patent US12692248B2, “Solid state forms of (S)-N-(3-(2-(((R)-1-hydroxypropan-2-yl)amino)-6-morpholinopyridin-4-yl)-4-methylphenyl)-3-(2,2,2-trifluoroethyl)pyrrolidine-1-carboxamide and salts thereof” (PIERRE FABRE MEDICAMENT, priority 2021, dated 2026)
Read-outs that look alike come from different tables or passages of the source.

Experiments:
Type in all cases: physicochemical
[1] = Stability at 60° C. and 40° C. at 75% relative humidity for 9 days (UPLC purity, XRPD); conditions: UPLC; for Purity −3 d: 3 days; for Purity −9 d: 9 days
Experimental: Compound 1 and Compound 2 were evaluated for stability at 60° C. and 40° C. at 75% relative humidity for 9 days. At 0, 3, and 9 days, the samples were dissolved with diluent to prepare a solution for purity analysis by UPLC. Solid samples were also analyzed by XRPD to check the crystal form.

[2] = Comparison dissolution trials in water and biorelevant media; conditions: for solubility at 0.5 h: read-out: Solubility (mg/mL) 0.5 h; for solubility at 2 h: read-out: Solubility (mg/mL) 2 h; for solubility at 24 h: read-out: Solubility (mg/mL) 24 h
Experimental: Comparison dissolution trials were performed on Compounds 1 and 2. About 20 mg of each sample was weighed into a sample vial and then 4 mL of media was added to make a suspension. All suspensions were shaken at 37° C. with a rate of 200 rpm. […] He pH of the filtrate was measured, and the filter cake was analyzed by XRPD. […] In biorelevant dissolution media FaSSIF and FeSSIF, the solubility of the Compound 1 and Compound 2 were similar.

[3] = Dynamic Vapor Sorption (DVS); conditions: DVS
Experimental: Dynamic Vapor Sorption (DVS) Moisture sorption/desorption data was collected on a DVS Intrinsic PLUS (SMS, UK). The sample was placed into a tared sample chamber and automatically weighed. The sample was dried at 40° C./0%0 RH until the dm/dt was less than 0.00200 and cooled to 25° C. [table]

[4] = Thermodynamic solubility in 13 solvents at RT and 50° C. by UPLC; conditions: for solubility: thermodynamic from solid; for XRPD at 1 d / XRPD at 4 d: residual solid
Experimental: Thermodynamic solubility of Compound 2 was measured in 13 solvents at RT and 50° C. by UPLC, respectively. […] In most of other selected solvents, the compound was almost insoluble (<0.5 mg/mL) except in EtOH and water where it was slightly soluble (6-9 mg/mL).

[5] = Stability of Compound 2 in 0.5% MC/0.1% Tween 80 at 10 mg/mL; conditions: suspension 10 mg/mL in 0.5% MC/0.1% Tween 80, RT, 7 days
Experimental: A solution of Compound 2 was evaluated for stability in 0.5% MC/0.1% Tween 80 at 10 mg/mL. 10.7 mg of Compound 2 was weighed into a sample vial, and then 500 μL of 1% MC and 500 μL of 0.2% Tween 80 were added to obtain a suspension at 10 mg/mL (calculated as the free base). The mixture was kept stirring for 15 min at RT and the suspension was placed at RT for 7 days.

[6] = simulated gastric fluid, thermodynamic from solid, SGF, 37° C.
[7] = thermodynamic from solid, FaSSIF, 37° C.
[8] = thermodynamic from solid, FeSSIF, 37° C.
[9] = thermodynamic from solid, Water, 37° C.

Cc1ccc(NC(=O)N2CC[C@@H](CC(F)(F)F)C2)cc1-c1cc(N[C@H](C)CO)nc(N2CCOCC2)c1.Cl [Compound 2, (S)—N-(3-(2-(((R)-1-hydroxypropan-2-yl)amino)-6-morpholinopyridin-4-yl)-4-methylphenyl)-3-(2,2,2-trifluoroethyl)pyrrolidine-1-carboxamide hydrochloride]
Purity −0 d (Area %) ([1]; 0 days (initial)): 99.77 Area % | Purity −3 d ([1]; 40° C./75% RH): 99.74 Area % | Purity −9 d ([1]; 40° C./75% RH): 99.76 Area % | Purity −3 d ([1]; 60° C.): 99.73 Area % | Purity −9 d ([1]; 60° C.): 99.74 Area % | solubility of Compound 1 and Compound 2 compared ([2]; FaSSIF and FeSSIF): similar | pH of the filtrate ([2]; Water medium): (pH 3.1) | solubility at 0.5 h [2, 6]: 0.2 mg/mL | solubility at 2 h [2, 6]: 0.27 mg/mL | solubility at 24 h [2, 6]: 0.39 mg/mL | solubility at 0.5 h [2, 7]: 0.024 mg/mL | solubility at 2 h [2, 7]: 0.021 mg/mL | solubility at 24 h [2, 7]: 0.027 mg/mL | solubility at 0.5 h [2, 8]: 0.21 mg/mL | solubility at 2 h [2, 8]: 0.2 mg/mL | solubility at 24 h [2, 8]: 0.23 mg/mL | solubility at 0.5 h [2, 9]: 1.42 mg/mL | solubility at 2 h [2, 9]: 1.36 mg/mL | solubility at 24 h [2, 9]: 2.49 mg/mL | solubility ([2]; thermodynamic from solid, water, 37° C.): ~2500 µg/mL | hygroscopicity [3]: slightly hydroscopic | water uptake at 80% RH ([3]; 25° C., 80% relative humidity): 0.66% | water uptake at 90% relative humidity ([3]; 25° C., 90% relative humidity): 0.95% | solubility ([4]; ACN, 50 °C, organic solvent or mixture, ACN, 50° C., read-out: Solubility at 50° C.(mg/mL)): 0.92 mg/mL | solubility ([4]; ACN, organic solvent or mixture, ACN, RT, read-out: Solubility at RT): 0.01 mg/mL | solubility ([4]; EA, 50 °C, organic solvent or mixture, EA, 50° C., read-out: Solubility at 50° C.(mg/mL)): 0.09 mg/mL | solubility ([4]; EA, organic solvent or mixture, EA, RT, read-out: Solubility at RT): 0.06 mg/mL | solubility ([4]; EtOH and water, water, EtOH and water (slightly soluble), read-out: solubility): 6 to 9 mg/mL | solubility ([4]; EtOH, 50 °C, organic solvent or mixture, EtOH, 50° C., read-out: Solubility at 50° C.(mg/mL)): 8.82 mg/mL | solubility ([4]; EtOH, organic solvent or mixture, EtOH, RT, read-out: Solubility at RT): 7.15 mg/mL | solubility ([4]; Hept, 50 °C, organic solvent or mixture, Hept, 50° C., read-out: Solubility at 50° C.(mg/mL)): 0.01 mg/mL | solubility ([4]; Hept, organic solvent or mixture, Hept, RT, read-out: Solubility at RT): 0.01 mg/mL | solubility ([4]; IPA, 50 °C, organic solvent or mixture, IPA, 50° C., read-out: Solubility at 50° C.(mg/mL)): 2.8 mg/mL | solubility ([4]; IPA, organic solvent or mixture, IPA, RT, read-out: Solubility at RT): 1.69 mg/mL | solubility ([4]; IPAC, 50 °C, organic solvent or mixture, IPAC, 50° C., read-out: Solubility at 50° C.(mg/mL)): 0.03 mg/mL | solubility ([4]; IPAC, organic solvent or mixture, IPAC, RT, read-out: Solubility at RT): 0.02 mg/mL | solubility ([4]; MEK, 50 °C, organic solvent or mixture, MEK, 50° C., read-out: Solubility at 50° C.(mg/mL)): 0.28 mg/mL | solubility ([4]; MEK, organic solvent or mixture, MEK, RT, read-out: Solubility at RT): 0.01 mg/mL | solubility ([4]; MIBK, 50 °C, organic solvent or mixture, MIBK, 50° C., read-out: Solubility at 50° C.(mg/mL)): 0.11 mg/mL | solubility ([4]; MIBK, organic solvent or mixture, MIBK, RT, read-out: Solubility at RT): 0.05 mg/mL | solubility ([4]; MTBE, 50 °C, organic solvent or mixture, MTBE, 50° C., read-out: Solubility at 50° C.(mg/mL)): 0.01 mg/mL | solubility ([4]; MTBE, organic solvent or mixture, MTBE, RT, read-out: Solubility at RT): 0.02 mg/mL | solubility ([4]; MeOH, 50 °C, organic solvent or mixture, MeOH, 50° C., read-out: Solubility at 50° C.(mg/mL)): ~102 mg/mL | Solubility at RT ([4]; MeOH, RT, hydrochloride): 54670 µg/mL | solubility ([4]; MeOH, organic solvent or mixture, MeOH, RT, read-out: Solubility at RT): ~55 mg/mL | solubility ([4]; acetone, 50 °C, organic solvent or mixture, Acetone, 50° C., read-out: Solubility at 50° C.(mg/mL)): 0.45 mg/mL | solubility ([4]; acetone, organic solvent or mixture, Acetone, RT, read-out: Solubility at RT): 0.65 mg/mL | solubility ([4]; cyclohexane, 50 °C, organic solvent or mixture, Cyclohexane, 50° C., read-out: Solubility at 50° C.(mg/mL)): 0.05 mg/mL | solubility ([4]; cyclohexane, organic solvent or mixture, Cyclohexane, RT, read-out: Solubility at RT): 0.01 mg/mL | solubility ([4]; organic solvent or mixture, most of other selected solvents (almost insoluble), read-out: solubility): < 0.5 mg/mL | XRPD at 1 d ([4]; ACN, 50° C.): Form I | XRPD at 4 d ([4]; ACN, RT): Form I | XRPD at 1 d ([4]; Acetone, 50° C.): Form I | XRPD at 4 d ([4]; Acetone, RT): Form I | XRPD at 1 d ([4]; Cyclohexane, 50° C.): Form I | XRPD at 4 d ([4]; Cyclohexane, RT): Form I | XRPD at 1 d ([4]; EA, 50° C.): Form I | XRPD at 4 d ([4]; EA, RT): Form I | XRPD at 1 d ([4]; EtOH, 50° C.): Form I | XRPD at 4 d ([4]; EtOH, RT): Form I | XRPD at 1 d ([4]; Hept, 50° C.): Form I | XRPD at 4 d ([4]; Hept, RT): Form I | XRPD at 1 d ([4]; IPA, 50° C.): Form I | XRPD at 4 d ([4]; IPA, RT): Form I | XRPD at 1 d ([4]; IPAC, 50° C.): Form I | XRPD at 4 d ([4]; IPAC, RT): Form I | XRPD at 1 d ([4]; MEK, 50° C.): Form I | XRPD at 4 d ([4]; MEK, RT): Form I | XRPD at 1 d ([4]; MIBK, 50° C.): Form I | XRPD at 4 d ([4]; MIBK, RT): Form I | XRPD at 1 d ([4]; MTBE, 50° C.): Form I | XRPD at 4 d ([4]; MTBE, RT): Form I | XRPD at 1 d ([4]; MeOH, 50° C.): Form I | XRPD at 4 d ([4]; MeOH, RT): Form I | XRPD at 1 d ([4]; Water, 50° C.): Form I | XRPD at 4 d ([4]; Water, RT): Form I | form change during the solubility testing ([4]; residual solids by XRPD): no form change | solubility ([4]; water, 50 °C, water, Water, 50° C., read-out: Solubility at 50° C.(mg/mL)): 6.73 mg/mL | solubility ([4]; water, Water, RT, read-out: Solubility at RT): 6.15 mg/mL | form change [5]: No form change | purity decrease ([5]; UPLC): 0.13%
